Reference: ChEMBL document CHEMBL1147684, “Nitrogen-bridged substituted 8-arylquinolines as potent PDE IV inhibitors” (Bioorg Med Chem Lett, 2006)

Assays:
[1] = target: T1, 3',5'-cyclic-AMP phosphodiesterase 4B (Homo sapiens, UniProt Q07343); assay: Ability to block TNFalpha release through inhibition of PDE4 in LPS-stimulated human whole blood; type: functional, tissue-based
[2] = target: 3',5'-cyclic-AMP phosphodiesterase 4C (Homo sapiens, UniProt Q08493); assay: Inhibition of human GST-PDE4C
[3] = target: T1, 3',5'-cyclic-AMP phosphodiesterase 4B; assay: Inhibition of human GST-PDE4B
[4] = target: 3',5'-cyclic-AMP phosphodiesterase 4D (Homo sapiens, UniProt Q08499); assay: Inhibition of human GST-PDE4D
[5] = target: 3',5'-cyclic-AMP phosphodiesterase 4A (Homo sapiens, UniProt P27815); assay: Inhibition of human GST-PDE4A
[6] = test system: Cavia porcellus; assay: Inhibition of ovalbumin-induced bronchoconstriction in guinea pig at 1 mg/kg, ip; type: functional; details: route intraperitoneal
[7] = Cmax in squirrel monkey; type: ADME, organism-based, Saimiri sciureus; details: in vivo
[8] = Cmax in rat; type: ADME, organism-based; details: in vivo
[9] = test system: Cavia porcellus; assay: Inhibition of ovalbumin-induced bronchoconstriction in guinea pig at 30 ug/kg, ip; type: functional
[10] = Half life in iv dosed squirrel monkey; type: ADME, organism-based, Saimiri sciureus; details: in vivo
[11] = Oral bioavailability in squirrel monkey; type: ADME, organism-based, Saimiri sciureus; details: in vivo
[12] = Oral bioavailability in rat; type: ADME, organism-based; details: in vivo
[13] = Half life in iv dosed rat; type: ADME, organism-based; details: in vivo

3',5'-cyclic-AMP phosphodiesterase 4C, sequence (Q08493 whole entry): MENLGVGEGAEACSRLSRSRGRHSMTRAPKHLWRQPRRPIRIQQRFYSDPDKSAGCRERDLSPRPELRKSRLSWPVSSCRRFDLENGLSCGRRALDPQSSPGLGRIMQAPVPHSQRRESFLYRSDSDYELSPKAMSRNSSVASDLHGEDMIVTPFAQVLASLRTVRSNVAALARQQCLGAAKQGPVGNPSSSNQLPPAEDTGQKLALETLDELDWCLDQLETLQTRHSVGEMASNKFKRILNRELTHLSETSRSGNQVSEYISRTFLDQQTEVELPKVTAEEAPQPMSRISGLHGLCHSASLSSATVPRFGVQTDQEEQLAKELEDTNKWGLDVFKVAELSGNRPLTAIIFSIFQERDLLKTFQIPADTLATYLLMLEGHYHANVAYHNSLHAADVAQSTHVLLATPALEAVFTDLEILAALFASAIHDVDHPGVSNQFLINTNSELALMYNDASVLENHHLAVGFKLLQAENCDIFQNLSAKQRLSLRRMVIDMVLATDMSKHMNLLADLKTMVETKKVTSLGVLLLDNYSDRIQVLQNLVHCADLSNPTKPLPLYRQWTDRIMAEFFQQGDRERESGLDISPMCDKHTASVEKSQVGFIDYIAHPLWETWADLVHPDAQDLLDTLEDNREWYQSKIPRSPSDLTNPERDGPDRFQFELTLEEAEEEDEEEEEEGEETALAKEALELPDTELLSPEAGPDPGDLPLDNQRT
T1 sequence (Q07343 whole entry): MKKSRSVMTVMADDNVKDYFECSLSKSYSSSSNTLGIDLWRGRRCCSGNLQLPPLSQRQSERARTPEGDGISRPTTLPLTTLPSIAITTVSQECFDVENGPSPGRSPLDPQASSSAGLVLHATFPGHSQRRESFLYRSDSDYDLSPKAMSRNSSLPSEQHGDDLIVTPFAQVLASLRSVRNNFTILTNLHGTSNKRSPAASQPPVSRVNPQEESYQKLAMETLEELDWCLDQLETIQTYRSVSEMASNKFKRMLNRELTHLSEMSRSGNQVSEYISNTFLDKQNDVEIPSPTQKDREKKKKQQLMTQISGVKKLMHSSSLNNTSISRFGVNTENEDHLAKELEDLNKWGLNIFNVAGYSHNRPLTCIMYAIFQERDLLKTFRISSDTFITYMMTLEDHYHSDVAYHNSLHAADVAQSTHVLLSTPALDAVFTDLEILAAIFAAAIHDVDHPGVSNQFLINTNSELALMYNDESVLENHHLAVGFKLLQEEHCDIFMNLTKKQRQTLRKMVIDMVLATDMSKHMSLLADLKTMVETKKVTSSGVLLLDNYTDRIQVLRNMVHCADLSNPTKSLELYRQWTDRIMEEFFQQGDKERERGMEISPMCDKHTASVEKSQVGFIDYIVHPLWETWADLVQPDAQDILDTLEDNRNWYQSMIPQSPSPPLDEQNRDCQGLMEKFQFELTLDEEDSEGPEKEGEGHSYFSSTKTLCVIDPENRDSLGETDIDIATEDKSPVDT
3',5'-cyclic-AMP phosphodiesterase 4D, sequence (Q08499 whole entry): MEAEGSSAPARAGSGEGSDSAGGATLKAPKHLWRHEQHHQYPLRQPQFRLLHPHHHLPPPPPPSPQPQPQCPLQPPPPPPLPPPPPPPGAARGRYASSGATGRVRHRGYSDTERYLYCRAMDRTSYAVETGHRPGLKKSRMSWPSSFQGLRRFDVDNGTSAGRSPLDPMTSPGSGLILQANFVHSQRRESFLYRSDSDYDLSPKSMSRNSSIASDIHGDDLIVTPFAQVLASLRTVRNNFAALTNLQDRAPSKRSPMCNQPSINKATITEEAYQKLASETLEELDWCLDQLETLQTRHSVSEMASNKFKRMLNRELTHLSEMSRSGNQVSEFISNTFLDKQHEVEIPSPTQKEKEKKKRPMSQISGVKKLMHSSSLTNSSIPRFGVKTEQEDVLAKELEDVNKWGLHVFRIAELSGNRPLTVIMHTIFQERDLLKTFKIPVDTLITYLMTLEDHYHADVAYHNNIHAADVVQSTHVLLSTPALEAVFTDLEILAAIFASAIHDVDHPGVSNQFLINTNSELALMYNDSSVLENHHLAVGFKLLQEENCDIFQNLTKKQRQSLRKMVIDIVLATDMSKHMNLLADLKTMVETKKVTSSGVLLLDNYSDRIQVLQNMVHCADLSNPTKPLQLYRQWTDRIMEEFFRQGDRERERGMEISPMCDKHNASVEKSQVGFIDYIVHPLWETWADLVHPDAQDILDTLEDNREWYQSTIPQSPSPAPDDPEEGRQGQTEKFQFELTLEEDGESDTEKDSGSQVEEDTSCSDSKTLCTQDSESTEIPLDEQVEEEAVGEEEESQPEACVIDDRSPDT
3',5'-cyclic-AMP phosphodiesterase 4A, sequence (P27815 whole entry): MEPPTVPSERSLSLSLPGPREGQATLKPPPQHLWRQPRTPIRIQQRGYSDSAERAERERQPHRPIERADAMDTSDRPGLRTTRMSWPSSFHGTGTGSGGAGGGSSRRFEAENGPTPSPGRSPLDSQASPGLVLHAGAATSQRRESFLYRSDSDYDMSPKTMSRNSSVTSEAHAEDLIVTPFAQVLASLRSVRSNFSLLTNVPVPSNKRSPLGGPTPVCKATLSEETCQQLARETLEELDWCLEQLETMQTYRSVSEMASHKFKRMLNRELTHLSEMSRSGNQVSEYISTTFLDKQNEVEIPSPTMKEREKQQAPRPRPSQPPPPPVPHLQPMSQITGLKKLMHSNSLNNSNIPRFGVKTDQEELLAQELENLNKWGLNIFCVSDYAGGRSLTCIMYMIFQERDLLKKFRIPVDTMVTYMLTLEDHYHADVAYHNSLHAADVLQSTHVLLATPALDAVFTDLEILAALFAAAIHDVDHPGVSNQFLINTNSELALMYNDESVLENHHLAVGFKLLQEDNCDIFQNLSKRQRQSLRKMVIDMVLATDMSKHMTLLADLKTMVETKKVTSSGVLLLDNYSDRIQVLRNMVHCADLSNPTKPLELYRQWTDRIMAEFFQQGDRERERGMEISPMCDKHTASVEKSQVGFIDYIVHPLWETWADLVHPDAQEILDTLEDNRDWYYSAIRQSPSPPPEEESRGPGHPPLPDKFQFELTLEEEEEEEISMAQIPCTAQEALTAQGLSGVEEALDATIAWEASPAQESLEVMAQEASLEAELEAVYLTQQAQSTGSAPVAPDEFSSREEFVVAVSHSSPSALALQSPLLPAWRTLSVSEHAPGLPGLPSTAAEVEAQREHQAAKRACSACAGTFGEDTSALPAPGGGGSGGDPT

Row | Compound | IC50 [1] [nM] | IC50 [2] [nM] | IC50 [3] [nM] | IC50 [4] [nM] | IC50 [5] [nM] | Cmax [7] [nM] | Cmax [8] [nM] | half-life [10] [h] | bioavailability [11] [%] | bioavailability [12] [%] | half-life [13] [h] | inhibition in vivo at 1 mg/kg [6] [%] | inhibition in vivo at 0.03 mg/kg [9] [%]
1 | CC(C)(c1cc(-c2cccc(C(=O)Nc3ccncc3)c2)c2ncccc2c1)S(C)(=O)=O | 200 | 17 | 0.9 | 3 | 3.1 |  |  |  |  |  |  |  | 
2 | COc1ccc([C@H](Cc2ccncc2)c2ccccc2)cc1OC1CCCC1 [CDP840] |  |  |  |  |  |  |  |  |  |  |  | 55 | 
3 | CC(C)(c1cc(-c2cccc(C(N)=O)c2)c2ncccc2c1)S(C)(=O)=O |  | 490 | 40 | 74 | 78 |  |  |  |  |  |  |  | 
4 | CC(c1cccc(-c2cc(C(C)(C)S(C)(=O)=O)cc3cccnc23)c1)N(C(=O)c1ccc(F)cc1)c1ccc(S(C)(=O)=O)cc1 (racemic) | 560 | 12 | 0.6 | 1.8 | 2.3 | 900 | 2700 | 7 | 98 | 67 | 2 |  | 74
5 | CC(C)(c1cc(-c2cccc(C(=O)Nc3ccccc3)c2)c2ncccc2c1)S(C)(=O)=O | 7000 | 97 | 5.9 | 10 | 16 |  |  |  |  |  |  |  | 
6 | CC(C)NC(=O)N(c1ccc(S(C)(=O)=O)cc1)C(C)c1cccc(-c2cc(C(C)(C)S(C)(=O)=O)cc3cccnc23)c1 (configuration not stated) | 400 | 25 | 0.7 | 1.9 | 1.8 |  |  |  |  |  |  |  | 
7 | CC(c1cccc(-c2cc(C(C)(C)S(C)(=O)=O)cc3cccnc23)c1)N(C(=O)C1CC1)c1ccc(S(C)(=O)=O)cc1 (configuration not stated) | 800 | 17 | 0.6 | 1.4 | 1.6 |  |  |  |  |  |  |  | 
8 | CC(C)(c1cc(-c2cccc(NC(=O)c3ccc(S(C)(=O)=O)cc3)c2)c2ncccc2c1)S(C)(=O)=O | 1000 | 10.6 | 1.2 | 2.3 | 1.7 |  |  |  |  |  |  |  | 
9 | CC(c1cccc(-c2cc(C(C)(C)S(C)(=O)=O)cc3cccnc23)c1)N(C(=O)c1cccnc1)c1ccc(S(C)(=O)=O)cc1 (configuration not stated) | 210 | 14 | 0.7 | 1.7 | 2.1 |  |  |  |  |  |  |  | 
10 | CC(C)(c1cc(-c2cccc(C(=O)Nc3ccc(S(C)(=O)=O)cc3)c2)c2ncccc2c1)S(C)(=O)=O | 140 | 26 | 0.5 | 2.8 | 3.5 |  |  |  |  |  |  |  | 
11 | CC(=O)N(c1ccc(S(C)(=O)=O)cc1)C(C)c1cccc(-c2cc(C(C)(C)S(C)(=O)=O)cc3cccnc23)c1 (configuration not stated) | 2000 | 41 | 4.2 | 6.7 | 10 |  |  |  |  |  |  |  | 
12 | CC(c1cccc(-c2cc(C(C)(C)S(C)(=O)=O)cc3cccnc23)c1)N(C(=O)c1ccc(F)cc1)c1ccc(S(C)(=O)=O)cc1 (single isomer, unassigned; enantiomer A) | 1400 | 51 | 5.8 | 7 | 15 |  |  |  |  |  |  |  | 
13 | CC(C)NC(=O)N(Cc1cc(-c2cc(C(C)(C)S(C)(=O)=O)cc3cccnc23)ccc1Cl)c1ccc(S(C)(=O)=O)cc1 | 4000 | 70 | 4.4 | 10 | 15 |  |  |  |  |  |  |  | 

Now from value to molecule, other results behind:

Row | IC50 [1] [nM] | IC50 [2] [nM] | IC50 [3] [nM] | IC50 [4] [nM] | IC50 [5] [nM] | Cmax [7] [nM] | Cmax [8] [nM] | half-life [10] [h] | bioavailability [11] [%] | bioavailability [12] [%] | half-life [13] [h] | Compound | inhibition in vivo at 1 mg/kg [6] [%] | inhibition in vivo at 0.03 mg/kg [9] [%]
14 | 100 | 1.7 | 0.1 | 0.1 | 0.1 |  |  |  |  |  |  | CC(C)NC(=O)N(Cc1cccc(-c2cc(C(C)(C)S(C)(=O)=O)cc3cccnc23)c1)c1ccc(S(C)(=O)=O)cc1 |  | 
15 | 90 | 5.5 | 0.4 | 0.7 | 0.6 |  |  |  |  |  |  | CC(C)(c1cc(-c2cccc(C(=O)Nc3c(Cl)cncc3Cl)c2)c2ncccc2c1)S(C)(=O)=O |  | 
16 | 1800 | 9.5 | 0.1 | 0.5 | 1 |  |  |  |  |  |  | CC(C)(C#N)c1cc(-c2cccc(CN(Cc3ccc(F)cc3)c3ccc(S(C)(=O)=O)cc3)c2)c2ncccc2c1 |  | 
17 | 140 | 1.7 | 0.1 | 0.1 | 0.1 |  |  |  |  |  |  | CC(C)NC(=O)N(Cc1cccc(-c2cc(C(C)(C)C#N)cc3cccnc23)c1)c1ccc(S(C)(=O)=O)cc1 |  | 
18 | 40 | 0.05 | 0.03 | 0.1 | 0.1 |  |  |  |  |  |  | CC(C)(C#N)c1cc(-c2cccc(CN(C(=O)Nc3ccccc3)c3ccc(S(C)(=O)=O)cc3)c2)c2ncccc2c1 |  | 
19 | 80 | 4.2 | 0.3 | 0.3 | 0.3 |  |  |  |  |  |  | CC(C)OC(=O)N(Cc1cccc(-c2cc(C(C)(C)C#N)cc3cccnc23)c1)c1ccc(S(C)(=O)=O)cc1 |  | 
20 | 270 | 5.9 | 0.4 | 0.5 | 1.5 |  |  |  |  |  |  | CC(c1cccc(-c2cc(C(C)(C)S(C)(=O)=O)cc3cccnc23)c1)N(C(=O)c1ccc(C(C)(C)O)cc1)c1ccc(S(C)(=O)=O)cc1 (configuration not stated) |  | 
21 | 30 | 0.9 | 0.1 | 0.1 | 0.3 |  |  |  |  |  |  | Cc1cc(C(=O)N(Cc2cccc(-c3cc(C(C)(C)C#N)cc4cccnc34)c2)c2ccc(S(C)(=O)=O)cc2)no1 |  | 
22 | 250 | 7.5 | 0.5 | 0.7 | 1.8 |  |  |  |  |  |  | CC(c1cccc(-c2cc(C(C)(C)S(C)(=O)=O)cc3cccnc23)c1)N(C(=O)c1ccc(F)cc1)c1ccc(S(C)(=O)=O)cc1 (single isomer, unassigned; enantiomer B) |  | 
23 | 50 | 6.4 | 0.3 | 0.8 | 0.6 |  |  |  |  |  |  | CC(C)NC(=O)N(Cc1cc(-c2cc(C(C)(C)S(C)(=O)=O)cc3cccnc23)ccc1F)c1ccc(S(C)(=O)=O)cc1 |  | 
24 | 80 | 1 | 0.1 | 0.3 | 0.2 |  |  |  |  |  |  | CC(C)(C#N)c1cc(-c2cccc(CN(C(=O)c3ccccc3)c3ccc(S(C)(=O)=O)cc3)c2)c2ncccc2c1 |  | 
